The source made the active and inactive calls. No rule for the calls is given here.
Each compound was assayed on Broad 7084-01 inhibitor HTS, set 2 (assay: single-concentration hits, screen 7084 set 2 (AID 977613);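 also: host cells are infected with parasite promastigotes that become internalized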).

Question: `C/C=C/c1ccc([C@@H]2[C@@H](CO)N3C(=O)CN(S(=O)(=O)c4ccccc4)C[C@@H]23)cc1` was tested. Which active concentration did it give?
Answer: > 10 µM (inactive)

Question: With `O=C(C[C@H]1CC[C@H]2[C@@H](COC[C@@H](O)CN2C(=O)c2ccccc2)O1)Nc1ccc(-c2ccccc2)cc1` as the compound, how does the active concentration read?
Answer: > 10 µM (inactive)

Question: Which active concentration does the source give for `CC(=O)N1CC[C@@H]2[C@H](CO)Nc3ccc(C#Cc4cccnc4)cc3[C@@H]21` here?
Answer: > 10 µM (inactive)

Question: How did the active concentration turn out when `COc1ccccc1NC(=O)N1C[C@@H]2[C@H](c3ccccc31)[C@@H](CO)N2C(C)=O` was run?
Answer: > 10 µM (inactive)

Question: For `CN1C(=O)c2cc(NC(=O)Nc3ccccc3Cl)ccc2OC[C@H]2O[C@@H](CC(=O)NCCCN3CCOCC3)CC[C@H]21`, which active concentration is on record?
Answer: > 10 µM (inactive)

Question: `O=C(C1CCCC1)N1CC2(C1)[C@H](c1ccccc1)[C@@H](CO)N2CC1CC1` was tested. Which active concentration did it give?
Answer: > 10 µM (inactive)

Question: With `O=C(C[C@@H]1CC[C@H]2[C@@H](COC[C@@H](O)CN2S(=O)(=O)c2ccc(F)cc2)O1)NCC1CC1` as the compound, how does the active concentration read?
Answer: > 10 µM (inactive)

Question: With `CCC(=O)N1[C@@H]2Cn3c(ccc(-c4ccncc4)c3=O)[C@H]1[C@@H](C(=O)NC1Cc3ccccc3C1)[C@@H]2CO` as the compound, how does the active concentration read?
Answer: > 10 µM (inactive)

Question: How did the active concentration turn out when `CCCNC(=O)N1[C@@H](CO)[C@@H](c2ccccc2)C12CN(C(=O)C1CCCCC1)C2` was run?
Answer: > 10 µM (inactive)

Question: Which active concentration does the source give for `C/C=C/c1ccccc1[C@H]1[C@@H](CO)N(C(=O)Nc2cccc(F)c2)[C@H]1C#N` here?
Answer: > 10 µM (inactive)

Question: How did the active concentration turn out when `CCCNC(=O)N1CC2(C1)CN(Cc1ccc(F)cc1)[C@H](CO)c1[nH]c3cc(OC)ccc3c12` was run?
Answer: > 10 µM (inactive)

Question: With `O=C(C[C@@H]1CC[C@H]2[C@@H](COC[C@@H](O)CN2C(=O)c2ccc3c(c2)OCO3)O1)NC1CCC1` as the compound, how does the active concentration read?
Answer: > 10 µM (inactive)

Question: Which active concentration does the source give for `N#C[C@H]1[C@@H](c2ccccc2C2=CCCCC2)[C@H](CO)N1C(=O)c1cccc(F)c1` here?
Answer: > 10 µM (inactive)

Question: Which active concentration does the source give for `O=C(CC(F)(F)F)N1C[C@H]2[C@@H](c3ccccc31)[C@@H](CO)N2CC1CCOCC1` here?
Answer: > 10 µM (inactive)

Question: How did the active concentration turn out when `OC[C@H]1[C@H]2c3ccccc3NC[C@H]2N1Cc1ccccc1Cl` was run?
Answer: > 10 µM (inactive)

Question: `N#C[C@@H]1[C@H](c2ccccc2C2=CCCCC2)[C@H](CO)N1C(=O)Nc1ccccc1F` was tested. Which active concentration did it give?
Answer: > 10 µM (inactive)

Question: For `O=C(Nc1ccc(F)cc1)N1[C@@H](CO)[C@@H]2c3ccccc3NC[C@@H]21`, which active concentration is on record?
Answer: > 10 µM (inactive)

Question: For `O=C(c1ccccc1)N1[C@H](CO)[C@H](c2ccccc2)C12CN(Cc1nccs1)C2`, which active concentration is on record?
Answer: > 10 µM (inactive)

Question: For `O=C(C[C@H]1CC[C@H]2[C@@H](COC[C@@H](O)CN2Cc2nccs2)O1)NCc1ccccc1`, which active concentration is on record?
Answer: > 10 µM (inactive)

Question: With `O=C(Cc1ccccn1)N1CC[C@@H]2[C@H](CO)Nc3ccc(-c4cccc(F)c4)cc3[C@@H]21` as the compound, how does the active concentration read?
Answer: > 10 µM (inactive)

Question: `O=C(c1cccnc1)N1C[C@H]2[C@@H](c3ccccc31)[C@H](CO)N2Cc1ccc2c(c1)OCO2` was tested. Which active concentration did it give?
Answer: > 10 µM (inactive)

Question: How did the active concentration turn out when `O=C(C1CCOCC1)N1CC(=O)N2[C@H](CO)[C@H](c3ccc(C#CCc4ccccc4)cc3)[C@@H]2C1` was run?
Answer: > 10 µM (inactive)

Question: How did the active concentration turn out when `C/C=C/c1ccc([C@H]2[C@H]3CN(S(=O)(=O)c4ccccc4)CC(=O)N3[C@H]2CO)cc1` was run?
Answer: > 10 µM (inactive)

Question: Which active concentration does the source give for `COc1ccc2c3c(n(C)c2c1)[C@H](CO)N(C(=O)Nc1ccc(F)cc1)CC31CCN(C(=O)c2ccc3c(c2)OCO3)CC1` here?
Answer: > 10 µM (inactive)

Question: With `O=C(CN1CCOCC1)N1CC(=O)N2[C@H](C1)[C@@H](c1ccc(-c3cccc(F)c3)cc1)[C@@H]2CO` as the compound, how does the active concentration read?
Answer: > 10 µM (inactive)

Question: Which active concentration does the source give for `Cc1noc(C)c1NC(=O)N1C[C@@H](O)COC[C@H]2O[C@H](CC(=O)NCC3CCCCC3)CC[C@@H]21` here?
Answer: > 10 µM (inactive)

Question: Which active concentration does the source give for `OC[C@@H]1Nc2ccc(-c3ccccc3)cc2[C@H]2[C@@H]1CCN2Cc1ccccc1F` here?
Answer: > 10 µM (inactive)

Question: `CCNC(=O)C[C@H]1CC[C@H]2[C@@H](COC[C@@H](O)CN2C(=O)C2CC2)O1` was tested. Which active concentration did it give?
Answer: > 10 µM (inactive)

Question: How did the active concentration turn out when `O=C(NC1CCCCC1)N1CC(=O)N2[C@H](C1)[C@H](c1ccc(-c3ccncc3)cc1)[C@@H]2CO` was run?
Answer: > 10 µM (inactive)

Question: Which active concentration does the source give for `COc1cc(CN2CC3(CN(C(=O)CN4CCOCC4)C3)c3c(n(C)c4cc(OC)ccc34)[C@@H]2CO)cc(OC)c1` here?
Answer: > 10 µM (inactive)

Question: With `COCC(=O)N1CC[C@H]2[C@@H]1c1cc(-c3ccc(F)cc3)ccc1N(C)[C@H]2CO` as the compound, how does the active concentration read?
Answer: > 10 µM (inactive)

Question: With `O=S(=O)(c1ccc(F)cc1)N1CCCCN2[C@H](CO)[C@H](c3ccc(-c4cncnc4)cc3)[C@H]2C1` as the compound, how does the active concentration read?
Answer: > 10 µM (inactive)

Question: Which active concentration does the source give for `COCC#Cc1ccc([C@@H]2[C@H](CO)N3C(=O)CN(C(=O)Nc4ccccc4F)C[C@@H]23)cc1` here?
Answer: > 10 µM (inactive)

Question: How did the active concentration turn out when `O=C(C1CCCCC1)N1CC(=O)N2[C@H](CO)[C@H](c3ccc(-c4ccccc4F)cc3)[C@@H]2C1` was run?
Answer: > 10 µM (inactive)

Question: `O=C(C[C@@H]1CC[C@H]2[C@@H](COC[C@@H](O)CN2C(=O)Nc2ccc(Cl)c(Cl)c2)O1)NCc1ccc(Cl)cc1` was tested. Which active concentration did it give?
Answer: > 10 µM (inactive)

Question: With `CCCNC(=O)N1CC(=O)N2[C@H](C1)[C@H](c1ccc(C#CCC3CCCC3)cc1)[C@@H]2CO` as the compound, how does the active concentration read?
Answer: > 10 µM (inactive)

Question: How did the active concentration turn out when `CCC(=O)N1CC2(C1)[C@@H](c1ccccc1)[C@@H](CO)N2C(=O)NC(C)C` was run?
Answer: > 10 µM (inactive)

Question: With `O=C1CNC[C@@H]2[C@@H](c3ccc(-c4ccccc4F)cc3)[C@@H](CO)N12` as the compound, how does the active concentration read?
Answer: > 10 µM (inactive)

Question: Which active concentration does the source give for `OC[C@@H]1[C@H](c2ccc(C3=CCCC3)cc2)[C@H]2CN(Cc3ccncc3)CCCCN12` here?
Answer: > 10 µM (inactive)

Question: With `Cc1noc(C)c1NC(=O)Nc1ccc2c(c1)C(=O)N(C)[C@H]1CC[C@H](CC(=O)NCc3ccc(Cl)cc3)O[C@@H]1CO2` as the compound, how does the active concentration read?
Answer: > 10 µM (inactive)

Question: For `CN1C(=O)c2cc(NC(=O)c3ccccc3Cl)ccc2OC[C@H]2O[C@H](CC(=O)NCC(F)(F)F)CC[C@H]21`, which active concentration is on record?
Answer: > 10 µM (inactive)

Question: How did the active concentration turn out when `O=C1CNC[C@@H]2[C@H](c3ccc(C#CC4CCCCC4)cc3)[C@@H](CO)N12` was run?
Answer: > 10 µM (inactive)

Question: `O=C(C[C@@H]1CC[C@@H]2[C@H](COC[C@H](O)CN2C(=O)c2ccccc2)O1)Nc1ccc(-c2ccccc2)cc1` was tested. Which active concentration did it give?
Answer: > 10 µM (inactive)

Question: `CN(C)C(=O)C[C@@H]1CC[C@@H]2[C@H](COC[C@H](O)CN2CC2CCCC2)O1` was tested. Which active concentration did it give?
Answer: > 10 µM (inactive)

Question: `CN1CCN(C(=O)C[C@@H]2CC[C@@H]3[C@H](COC[C@@H](O)CN3CC3CC3)O2)CC1` was tested. Which active concentration did it give?
Answer: > 10 µM (inactive)

Question: For `CC(C)C#Cc1ccc([C@H]2[C@@H](CO)N3C(=O)CN(C(=O)Cc4ccccc4)C[C@H]23)cc1`, which active concentration is on record?
Answer: > 10 µM (inactive)

Question: How did the active concentration turn out when `O=C(C[C@H]1CC[C@@H]2[C@H](COC[C@@H](O)CN2Cc2cc(F)ccc2F)O1)NCc1ccc(F)cc1` was run?
Answer: > 10 µM (inactive)

Question: `C/C=C/c1ccccc1[C@H]1[C@@H](CO)N(C(=O)NC2CCCCC2)[C@H]1C#N` was tested. Which active concentration did it give?
Answer: > 10 µM (inactive)

Question: How did the active concentration turn out when `OC[C@@H]1[C@H](c2ccccc2)C2(CN(Cc3nccs3)C2)N1Cc1cccnc1` was run?
Answer: > 10 µM (inactive)

Question: Which active concentration does the source give for `O=C(Nc1ccccc1)N1C[C@@H]2[C@H](c3ccccc31)[C@H](CO)N2Cc1ccccc1Cl` here?
Answer: > 10 µM (inactive)

Question: How did the active concentration turn out when `O=C(CC1CC1)N1CC(=O)N2[C@H](CO)[C@H](c3ccc(/C=C/c4ccccc4)cc3)[C@@H]2C1` was run?
Answer: > 10 µM (inactive)

Question: How did the active concentration turn out when `COc1cccc(CN2CC3(CN(C)C3)c3c([nH]c4cc(OC)ccc34)[C@H]2CO)c1` was run?
Answer: > 10 µM (inactive)

Question: For `CS(=O)(=O)N1C[C@H](O)COC[C@@H]2O[C@H](CC(=O)NCc3ccc(-c4ccccc4)cc3)CC[C@H]21`, which active concentration is on record?
Answer: > 10 µM (inactive)

Question: Which active concentration does the source give for `COc1ccccc1C(=O)Nc1ccc2c(c1)C(=O)N(C)[C@@H]1CC[C@@H](CC(=O)NCCc3ccncc3)O[C@H]1CO2` here?
Answer: > 10 µM (inactive)

Question: `O=C(Nc1nccs1)[C@@H]1[C@@H](CO)[C@@H]2Cn3c(cccc3=O)[C@H]1N2C(=O)C1CCCC1` was tested. Which active concentration did it give?
Answer: > 10 µM (inactive)

Question: How did the active concentration turn out when `O=C(C[C@@H]1CC[C@H]2[C@@H](COC[C@@H](O)CN2CC2CC2)O1)NCc1ccc(Cl)cc1` was run?
Answer: > 10 µM (inactive)

Question: `CN(C)C(=O)C[C@@H]1CC[C@@H]2[C@H](COC[C@@H](O)CN2CC2CC2)O1` was tested. Which active concentration did it give?
Answer: > 10 µM (inactive)

Question: With `O=C1CNC[C@@H]2[C@@H](c3ccc(C#CC4CCCCC4)cc3)[C@H](CO)N12` as the compound, how does the active concentration read?
Answer: > 10 µM (inactive)

Question: For `O=C([C@H]1[C@H](CO)[C@H]2Cn3c(cccc3=O)[C@H]2N1Cc1ccccc1Cl)N1CCCCC1`, which active concentration is on record?
Answer: > 10 µM (inactive)

Question: With `O=C1CN(S(=O)(=O)Cc2ccccc2)C[C@@H]2[C@H](c3ccc(C#Cc4ccccc4)cc3)[C@@H](CO)N12` as the compound, how does the active concentration read?
Answer: > 10 µM (inactive)

Question: With `COc1ccc2c3c(n(C)c2c1)[C@@H](CO)N(C)CC31CN(CC2CC2)C1` as the compound, how does the active concentration read?
Answer: > 10 µM (inactive)

Question: How did the active concentration turn out when `COc1cccc(CN2[C@H](CO)[C@@H](c3ccccc3)C23CN(Cc2ccccc2OC)C3)c1` was run?
Answer: > 10 µM (inactive)

Question: For `O=C(C[C@@H]1CC[C@H]2[C@@H](COC[C@H](O)CN2Cc2ccc3c(c2)OCO3)O1)Nc1ccccc1`, which active concentration is on record?
Answer: > 10 µM (inactive)

Question: Which active concentration does the source give for `N#Cc1ccc(-c2ccc3c(c2)[C@H]2[C@H](CCN2C(=O)C2CCCCC2)[C@H](CO)N3)cc1` here?
Answer: > 10 µM (inactive)

Question: For `COC(=O)C[C@H]1CC[C@@H]2[C@H](COc3ccc(NS(=O)(=O)c4ccccc4Cl)cc3C(=O)N2C)O1`, which active concentration is on record?
Answer: > 10 µM (inactive)

Question: Which active concentration does the source give for `O=C(C1CC1)N1CC2(C1)[C@H](c1ccccc1)[C@H](CO)N2Cc1nccs1` here?
Answer: > 10 µM (inactive)

Question: `N#C[C@H]1[C@@H](c2ccccc2-c2cccc(F)c2)[C@@H](CO)N1C(=O)CN1CCOCC1` was tested. Which active concentration did it give?
Answer: > 10 µM (inactive)

Question: How did the active concentration turn out when `Cc1ccc(-c2ccccc2[C@@H]2[C@H](C#N)N(C(=O)c3cccc(F)c3)[C@H]2CO)cc1` was run?
Answer: > 10 µM (inactive)

Question: `COc1ccccc1CN1[C@H](CO)[C@@H]2c3ccccc3N(C(=O)c3cccnc3)C[C@@H]21` was tested. Which active concentration did it give?
Answer: > 10 µM (inactive)

Question: Which active concentration does the source give for `O=C(C[C@H]1CC[C@@H]2[C@H](COC[C@@H](O)CN2Cc2cccc(F)c2)O1)NCc1cccc(F)c1` here?
Answer: > 10 µM (inactive)

Question: For `CCC(=O)N1[C@@H]2Cn3c(ccc(-c4ccc(F)cc4)c3=O)[C@H]1[C@@H](C(=O)OC)[C@@H]2CO`, which active concentration is on record?
Answer: > 10 µM (inactive)

From PubChem BioAssay AID977613 (Broad Institute, 2014)
